Experimental data taken from ChEMBL document CHEMBL1121662 (1981).

Key:
Assay type in all cases: functional
Mus musculus [1] = species: Mus musculus; assay: Compound was evaluated for Carcinogenicity based on concentration necessary to produce one tumor per mouse (Strain A)
Mus musculus [2] = species: Mus musculus; assay: Compound was evaluated for Carcinogenicity to produce 0.5 tumors per mouse (B.5)
Mus musculus [3] = species: Mus musculus; assay: Compound was evaluated for low level mutagenicity
Mus musculus [4] = species: Mus musculus; assay: Compound was evaluated for mutagenicity after threshold range

| SMILES | Log 1/B+1 (Mus musculus [1]) | Log 1/B.5 (Mus musculus [2]) | Log 1/B+100 (Mus musculus [3]) | Log 1/Th+200 (Mus musculus [4]) |
| --- | --- | --- | --- | --- |
| NC(=O)Nc1cc(NC(N)=O)cc(N(CCCl)CCCl)c1 | 4.26 | 5.43 | 0.31 | -0.01 |
| ClCCN(CCCl)c1ccc(/C=C/c2ccccc2)cc1 |  |  | 1.99 | 2.04 |
